Converted amounts (≈) assume the structure as drawn. “Also recorded” adds a separate entry of the source. Square brackets hold non-standard residues; d marks the D form. Peptide text beside a SMILES is read from it. NMeF = CN[C@@H](Cc1ccccc1)C(=O)O; PhLac = O=C(O)[C@@H](O)Cc1ccccc1; NMeL = CN[C@@H](CC(C)C)C(=O)O; NMeV = CN[C@H](C(=O)O)C(C)C; Hiv = CC(C)[C@H](O)C(=O)O; NMeA = CN[C@@H](C)C(=O)O
What was measured:
[1] = target: Aβ40 (Homo sapiens, UniProt P05067); experiment: Inhibition of Aβ40 fibrillogenesis, thioflavin T fluorescence assay; assay type: biochemical
Chain of Aβ40 (P05067 672-711): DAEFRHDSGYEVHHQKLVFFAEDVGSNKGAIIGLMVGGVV

[2] = Fibril formation by the peptide alone (electron microscopy, Congo Red); assay type: physicochemical
Description: After incubation of the inhibition and disassembly samples for the appropriate period of time, an aliquot of each sample was applied to a glow-discharge, 400-mesh, carbon-coated support film and stained with 1% uranyl acetate. Micrographs were recorded using Philips EM300 at magnifications of 17,000, 45,000 and 100,000.
(§1) The Congo Red binding assay was performed essentially as described in other publications (Klunk 1989). An aliquot of peptide solution containing 50 μg of peptide was added to 1 ml of a […] solution of Congo Red in 100 mM phosphate buffer, pH 7.4. The solution was incubated for 15 min at room temperature and then the absorbance was measured from 400-600 nm.
For the electron microscopy, aliquots of the inhibition and disassembly samples were applied to a glow-discharge, 400-mesh, carbon-coated support film and stained with 1% uranyl acetate. Micrographs were recorded using a Philips EM300 at magnifications of 17,000, 45,000 and 100,000.

[3] = Solubility in aqueous media and organic solvents
[4] = tested on: COS cells; experiment: COS cell uptake of fluorescent peptides, fluorescence microscopy and HPLC reisolation; assay type: cell-based
Description: (§2) Briefly, COS cells, were plated on coverslips, and incubated overnight in the presence of 4 μM to β40 μM of the Anth-A16-20 peptide. The cells on coverslips were then washed extensively with PBS, fixed for one hour with a 3.7% formaldehyde solution and mounted on a slide. The cells were examined by fluorescence microscopy using a DAPI filter.
as §2, with “COS” for “Briefly, COS”, “cells,” for “cells, were”, “coverslips, were” for “coverslips, and”, “to 40” for “to β40”, “the Anth-Aβ16-20” for “the Anth-A16-20”
In this experiment, Anth-Aβ16-20m was incubated with COS cells for eight hours. […] The cells were then lysed by the addition of Triton X-100 to 0.1% (v/v), and the lysate was analyzed by HPLC. The HPLC solvent system contained 0.1% trifluoroacetic acid in water (solvent A) and 0.1% trifluoroacetic acid in acetonitrile (solvent B). The peptide was eluted with a gradient of 0%-60% solvent B in 60 minutes. Fractions (1 ml) from the HPLC were collected and analyzed by fluorescence spectroscopy. The excitation and emission wavelengths were 346 nm and 435 nm, respectively.

[5] = target: T1, Aβ40 fibrils (Homo sapiens, UniProt P05067)
T1 sequence (P05067 672-711): as above

[6] = target: chymotrypsin (Bos taurus, UniProt P00766); experiment: Chymotrypsin digestion (protease resistance), RP-HPLC; assay type: in vitro ADME; details: 24 h at 37° C., 0.1 mg/ml chymotrypsin, pH 8.4
Description: Peptides were incubated for 24 h at 37 C with […] chymotrypsin. The percentage of undigested peptide was determined by RC-HPLC as described in the Materials and Methods. […] The arrow marks the position of the intact.
The peptides were dissolved in 0.5% ammonium bicarbonate at a concentration of 1.0 mg/ml. The pH of the solution was 8.4. Chymotrypsin (Worthington Biochemical Corporation) was added to the peptide solutions so that the final concentration was 0.1 mg/ml. Samples were incubated at 37° C. After twenty-four hrs, the samples were frozen and lyophilized. The samples were analyzed by reverse-phase HPLC using an analytical C 18 column (Rainin Microsorb) and eluted, using a 60 min gradient from 10-70% acetonitrile, containing 0.1% (v/v) TFA. The loss of intact peptide and appearance of fragments were quantitated by integration of the appropriate peaks. Results were expressed as a percent digestion of the peptides. In addition, identities of the peaks were confirmed by electrospray mass spectrometry.
The peptides were dissolved in 0.5% ammonium bicarbonate at a concentration of 1.0 mg/ml. […] After twenty-four hours, the samples were lyophilized and then analyzed by reverse-phase HPLC (Rainin-Microsorb C18 column) and a water-acetonitrile (0.1% (v/v) TFA) gradient (10-70% acetonitrile over one h).

[7] = target: T1, Aβ40 fibrils; experiment: Electron microscopy of Aβ40 fibril inhibition and disassembly samples; assay type: biochemical; details: Aβ40 incubated with inhibitor peptide
[8] = target: Aβ1-40 fibrils (Homo sapiens, UniProt P05067); experiment: Congo Red binding assay of Aβ1-40 fibril inhibition and disassembly; assay type: biochemical
Chain of Aβ1-40 fibrils (P05067 672-711): as above
Description: as §1, with “Thioflavin T fluorescence is well known as a sensitive assay for the formation of amyloid fibrils. […] The Congo” for “The Congo”

CC(=O)N[C@@H](CCCCN)C(=O)N[C@@H](CC(C)C)C(=O)N[C@H](C(=O)N[C@@H](Cc1ccccc1)C(=O)N[C@@H](Cc1ccccc1)C(N)=O)C(C)C [Aβ16-20, reference compound]
Inhibition ICmax [1]: 89 | fibril formation by the peptide alone [2]: aggregates to form amyloid fibrils; also recorded: bind Congo Red | solubility [3]: ~1000 µM (≈ 694 µg/mL)

CC(C)C[C@H](NC(=O)[C@@H](N)CCCCN)C(=O)N(C)[C@H](C(=O)N(C)[C@@H](Cc1ccccc1)C(=O)N(C)[C@@H](Cc1ccccc1)C(=O)N(C)[C@@H](C)C(=O)N[C@@H](CCC(=O)O)C(N)=O)C(C)C [Aβ16-22m(4), NH2-KL(me-V)(me-F)(me-F)(me-A)-E-CONH2] (H-KL[NMeV][NMeF][NMeF][NMeA]E-NH2)
Inhibition of Fibrillogenesis ICmax [1]: 100 | Inhibition of Fibrilogenesis ICmax [1]: 100% | solubility in aqueous media (in words) [3]: highly soluble in water

CNc1ccccc1C(=O)N[C@@H](CCCCN)C(=O)N(C)[C@@H](CC(C)C)C(=O)N[C@H](C(=O)N(C)[C@@H](Cc1ccccc1)C(=O)N[C@@H](Cc1ccccc1)C(N)=O)C(C)C [Anth-Aβ16-20m, Anth-NH—K(me-L)V(me-F)F—CONH2]
Inhibition ICmax [1]: 100 | integrity of peptide internalized by COS cells and reisolated (HPLC) ([4]; overnight incubation): not modified or degraded | fluorescence of COS cells ([4]; peptide levels below 4 μM): Very weak fluorescence | intracellular fluorescence / permeation of COS cell membranes ([4]; twelve hours incubation): permeates cell membranes

CC(C)[C@H](NC(=O)[C@H](C(C)C)N(C)C(=O)[C@H](C)NC(=O)[C@H](C)NC(=O)[C@H](C)NC(=O)[C@H](C)N(C)C(=O)[C@H](C)NC(=O)CN)C(N)=O [PrPm, NH2-GA(me-A)AAA(me-V)V-CONH2] (H-GA[NMeA]AAA[NMeV]V-NH2)
Inhibition of Fibrillogenesis ICmax [1]: 8.6 | Inhibition of Fibrilogenesis ICmax [1]: 8.6% | effect on Aβ40 fibril formation (in words) [1]: no effect

CC(=O)N[C@@H](CCCCN)C(=O)N[C@@H](CC(C)C)C(=O)N[C@H](C(=O)N[C@@H](Cc1ccccc1)C(=O)N[C@@H](Cc1ccccc1)C(N)=O)C(C)C [Ac-Aβ16-20, Ac-NH-KLVFF-CONH2, reference compound]
Inhibition of Fibrillogenesis ICmax [1]: 100 | Inhibition of Fibrilogenesis ICmax [1]: 100% | disassembly of pre-formed Aβ40 fibrils (in words) ([5]; thioflavin fluorescence): disassembled pre-formed

CC(C)C[C@@H](C(=O)N[C@H](C(=O)N(C)[C@@H](Cc1ccccc1)C(=O)N[C@@H](Cc1ccccc1)C(=O)N(C)[C@@H](C)C(=O)N[C@@H](CCC(=O)O)C(N)=O)C(C)C)N(C)C(=O)[C@@H](N)CCCCN [Aβ16-22m, NH2-K(me-L)V(me-F)F(me-A)-E-CONH2] (H-K[NMeL]V[NMeF]F[NMeA]E-NH2)
Inhibition of Fibrillogenesis ICmax [1]: 100 | Inhibition of Fibrilogenesis ICmax [1]: 100% | effect on Aβ40 fibril formation (in words) [1]: prevented fibril formation of Aβ40 in a dose dependent manner | molar excess of inhibitor giving complete elimination of thioflavin fluorescence (complete inhibition) [1]: > 30 | chymotrypsin digestion [6]: complete resistance; also recorded: highly resistant | fibril formation by the peptide alone [2]: no fibrillar or aggregated material | fibrillar material by electron microscopy, inhibition samples [7]: complete lack of fibrils | solubility in aqueous media (in words) [3]: highly soluble in aqueous solutions; also recorded: highly soluble in aqueous media | solubility relative to unmethylated congener ([3]; physiological pH and ionic strength): 20-40 times

CC(C)C[C@H](NC(=O)[C@@H](N)CCCCN)C(=O)N[C@H](C(=O)N[C@@H](Cc1ccccc1)C(=O)N[C@@H](Cc1ccccc1)C(=O)N[C@@H](C)C(=O)N[C@@H](CCC(=O)O)C(N)=O)C(C)C [Aβ16-22, NH2-KLVFFAE-CONH2] (H-KLVFFAE-NH2)
Inhibition of Fibrillogenesis ICmax [1]: 23.0 | Inhibition of Fibrilogenesis ICmax [1]: 23.0% | effect on Aβ40 fibril formation (in words) [1]: relatively modest inhibitory effect | inhibition of fibrillogenesis [1]: 10-20% | chymotrypsin digestion [6]: cleaved by chymotrypsin

CC(=O)N[C@@H](CCCCN)C(=O)N[C@@H](CC(C)C)C(=O)O[C@H](C(=O)N[C@@H](Cc1ccccc1)C(=O)O[C@@H](Cc1ccccc1)C(N)=O)C(C)C [Aβ16-20e, Ac—NH—KLesterVFesterF—CONH2] (Ac-KL[Hiv]F[PhLac]-NH2)
Inhibition ICmax [1]: 100 | Congo Red spectrum, pre-formed Aβ1-40 fibrils to which inhibitor was added ([8]; disassembly): identical to the control spectrum of Congo Red alone | Congo Red spectrum, Aβ1-40 incubated with inhibitor ([8]; inhibition): identical to the control spectrum of Congo Red alone | fibril formation by the peptide alone [2]: does not cause a change in the absorbance spectrum of Congo Red | fibrillar material by electron microscopy, inhibition samples [7]: Fibrillar material was not observed | Disassembly ICmax [5]: 100

CC(=O)N[C@@H](CCCCN)C(=O)N[C@@H](CC(C)C)C(=O)N(C)[C@H](C(=O)N[C@@H](Cc1ccccc1)C(=O)N(C)[C@@H](Cc1ccccc1)C(N)=O)C(C)C [Aβ16-20m2]
solubility in aqueous media (in words) [3]: highly soluble in aqueous media

CC(C)C[C@@H](C(=O)N[C@H](C(=O)N(C)[C@@H](Cc1ccccc1)C(=O)N[C@@H](Cc1ccccc1)C(=O)N(C)[C@@H](C)C(=O)N[C@@H](CCCCN)C(N)=O)C(C)C)N(C)C(=O)[C@@H](N)CCC(=O)O [Aβ16-22mR, NH2-E(me-L)V(me-F)F(me-A)-K-CONH2] (H-E[NMeL]V[NMeF]F[NMeA]K-NH2)
Inhibition of Fibrillogenesis ICmax [1]: 100 | Inhibition of Fibrilogenesis ICmax [1]: 100% | effect on Aβ40 fibril formation (in words) [1]: prevented fibril formation of Aβ40 in a dose dependent manner | solubility in aqueous media (in words) [3]: highly soluble in aqueous solutions

CNc1ccccc1C(=O)N[C@@H](CCCCN)C(=O)N[C@@H](CC(C)C)C(=O)N[C@H](C(=O)N[C@@H](Cc1ccccc1)C(=O)N[C@@H](Cc1ccccc1)C(N)=O)C(C)C [Anth-Aβ16-20]
Inhibition of Fibrilogenesis ICmax [1]: 100% | fluorescence of COS cells ([4]; peptide concentration 20 μM): Strong fluorescence | fluorescence of COS cells ([4]; peptide levels below 4 μM): Very weak fluorescence | Fibril Disassembly ICmax [5]: 100%

Source: patent US20030130484A1, “Inhibitors and disassemblers of fibrillogenesis” (priority 2001, published 2003)
